This test concerns the target Mu-type opioid receptor (Homo sapiens, UniProt P35372). Put plainly: Competitive Displacement Assay: Membrane protein from CHO (Chinese Hamster Ovarian) cells that stably expressed one type of the cloned human opioid receptor were incubated with 12 different concentrations of the compound in the presence of 0.25 nM [3H]DAMGO, 0.2 nM [3H]naltrindole or 1 nM [3H]U69,593 in a final volume of 1 mL of 50 mM Tris-HCl, pH 7.5 at 25° C. Incubation times of 60 min were used for [3H]DAMGO and [3H]U69,593. Because of a slower association of [3H]naltrindole with the receptor, a 3 h incubation was used with this radioligand. Samples incubated with [3H]naltrindole also contained 10 mM MgCl2 and 0.5 mM phenylmethylsulfonyl fluoride. Nonspecific binding was measured by inclusion of 10 μM naloxone. The binding was terminated by filtering the samples through Schleicher & Schuell No. 32 glass fiber filters using a Brandel 48-well cell harvester. The filters were subsequently washed three times with 3 mL of cold 50 mM Tris-HCl, pH 7.5, and were counted in 2 mL Ecoscint A scintillation fluid. For [3H]naltrindole and [3H]U69,593 binding, the filters were soaked in 0.1% polyethylenimine for at least 60 min before use.

Some results are limits rather than exact numbers.

Mu-type opioid receptor, sequence (P35372 whole entry): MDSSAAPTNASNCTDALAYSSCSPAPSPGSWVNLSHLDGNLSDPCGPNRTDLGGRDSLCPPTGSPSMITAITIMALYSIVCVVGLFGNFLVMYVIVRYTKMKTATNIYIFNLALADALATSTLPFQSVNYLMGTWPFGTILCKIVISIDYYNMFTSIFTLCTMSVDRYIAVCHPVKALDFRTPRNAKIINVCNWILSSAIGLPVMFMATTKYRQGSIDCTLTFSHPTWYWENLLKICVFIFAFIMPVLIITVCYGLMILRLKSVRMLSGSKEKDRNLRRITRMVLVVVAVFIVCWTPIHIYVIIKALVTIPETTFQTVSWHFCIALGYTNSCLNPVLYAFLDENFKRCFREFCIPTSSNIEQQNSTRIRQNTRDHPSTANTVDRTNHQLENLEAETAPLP

Turning to `COC1(c2ccnc(C(N)=O)c2)C2CCCC1CN(Cc1cc3ccccc3[nH]1)C2` (stereo unspecified), the Ki is below 1 nM.

Values taken from ChEMBL document CHEMBL5727660, “Compounds for the treatment of pain” (2020).
